# Measurements published in US20050129779A1, “Use of a hsp inducing compound to limit the side effects of retinoids” (priority 2002, published 2005).
# Columns and labels:
# HSP 70 [1] = conditions: ex vivo skin irradiated with 200 mJ/cm^2 UVB; 10^-7 retinoic acid; 1-3% extract
# Procedure: The samples were either treated or untreated with 10^−7retinoic acid plus 1-3% of the extract from example 1. The skin samples were subsequently fixed in 9% formol salt for 10 hours. They were then embedded in paraffin using an automated method. 2-3 urn sections were then cut to be used for immunostaining.
# The experiments in example three were repeated except that the skin samples were irradiated with a 200 mJ/cm^2 dose of UVB.
# HSP 70 [2] = test: Immuno-blot of HSP in cultured human fibroblasts; assay type: cell-based; conditions: 10^-7 M ATRA, 3% extract
# Procedure: […] Several different experimental conditions were used for the fibroblasts.
# The conditions that were tested on the fibroblasts were as follows: • Control condition (non-treated cells) • Cells treated with 10^−7M all-trans retinoic acid (ATRA) • Cells treated with 3% of the extract from example 1 • Cells treated with 10^−7 M all-trans retinoic acid and 3% of the extract from example 1.
# The results illustrated in FIGS. 1 and 2 represent the quantities of HSP obtained by immunoblotting carried out on the human fibroblasts following the treatments in various culture conditions.
# IL-1 alpha = test: Interleukin-1 ELISA in HaCat keratinocytes and fibroblasts (inflammation induced by retinoids); assay type: cell-based, human; conditions: 10^-7 M ATRA 6 days, 3% extract 48 hours
# Procedure: The Artemia extract from example 1 was used at 3% in in vitro tests in order to show the benefits of applying it in combination with retinoids, with the overall goal of diminishing the inflammation induced by retinoids.
# Human HaCat keratinocytes and fibroblasts were cultured in 100mm diameter culture dishes. When the cells reached 50% confluence, they were either treated with 3% of extract from example 1 or not, for 48 hours. In a parallel manner, concentrations of 10^−7M all-trans retinoic acid (ATRA) were, or were not, applied.
# The following experimental conditions were used for the different treatment groups: • Control condition (no treatment); • Extract from example 1 for 48n hours; • All-trans retinoic acid (ATRA) for 6 days; • All-trans retinoic acid (ATRA) for 6 days of which 48 hours were treated in combination with the extract from example 1.
# After six days in culture, the dose of Interleukin-1 was determined using ELISA, to show evidence of an inflammatory reaction.
# HSP 70 [3] = test: Ex vivo immunostaining of HSP 70 in cultured skin samples; assay type: cell-based; conditions: ex vivo skin cultured 5 days; 10^-7 retinoic acid; 1-3% extract
# Source text: Ex vivo immunostaining studies have enabled it to be determined that HSP 70 is expressed in skin samples which have been cultured for 5 days. The samples were either treated or untreated with 10^−7retinoic acid plus 1-3% of the extract from example 1.
compound,measurement,setting,value
"CC1=C(/C=C/C(C)=C/C=C/C(C)=C/C(=O)O)C(C)(C)CCC1 [retinoic acid, all-trans retinoic acid]",HSP 70 expression in skin samples following UV stress (immunostaining),HSP 70 [1],clearly diminished
same,"HSP 70 expression (immuno-blot, FIG. 2)",HSP 70 [2]; aging human fibroblasts (printed: cultured),slightly augmented
same,"HSP 70 expression (immuno-blot, FIG. 1)",HSP 70 [2]; young human fibroblasts (printed: cultured for 24 hours),diminished
same,"IL-1 alpha concentration / inflammatory response (ELISA, FIG. 3)",IL-1 alpha,significantly augmented
same,HSP 70 expression in skin samples (immunostaining),HSP 70 [3],clearly express less HSP 70 than non-treated skin samples
